Patent publication US7851466B2, “Pyrimidine compounds and uses thereof” (Synta Pharmaceuticals Corp., priority 2004, dated 2010)

Tests used:
[1] = tested on: adjuvant arthritis (AA) in female Lewis rats; assay: Treatment of adjuvant arthritis in rats; format: in vivo, rat; conditions: oral administration once a day for 12 days; experiments repeated four times
Experimental: Treatment of adjuvant arthritis in rats: Adjuvant arthritis (AA) was induced in female Lewis rats by the intracutaneous injection (base of the tail) of 0.1 mL of a 10 mg/mL bacterial suspension made from ground, heat-killed Mycobacterium tuberculosis H37Ra suspended in incomplete Freund's adjuvant. Rats were given a test compound orally once a day for 12 days, starting the day following the induction. The development of polyarthritis was monitored daily by macroscopic inspection and assignment of an arthritis index to each animal, during the critical period (days 10 to 25 post-immunization).
The intensity of polyarthritis was scored according to the following scheme: (a) Grade each paw from 0 to 3 based on erythema, swelling, and deformity of the joints: 0 for no erythema or swelling; 0.5 if swelling is detectable in at least one joint; 1 for mild swelling and erythema; 2 for swelling and erythema of both tarsus and carpus; and 3 for ankylosis and bony deformity. Maximum score for all 4 paws was thus 12. […]
Experiments with the AA model were repeated four times. […] The arthritis score used in this model was a reflection of the inflammatory state of the structures monitored and the results therefore show the ability of the test compound to provide relief for this aspect of the pathology.

[2] = tested on: DNBS-induced distal colitis in Wistar derived rats; assay: Dinitrobenzene sulfonic acid-induced inflammatory bowel syndrome model rats; format: in vivo, rat; conditions: oral, 24 and 2 hours before DNBS instillation and then daily for 5 days
Experimental: Treatment of Crohn's disease in dinitrobenzene sulfonic acid-induced inflammatory bowel syndrome model rats: Wistar derived male or female rats weighing 200±20 g and fasted for 24 hours were used. Distal colitis was induced by intra-colonic instillation of 2,4-dinitrobenzene sulfonic acid (DNBS, 25 mg in 0.5 mL ethanol 30%) after which air (2 mL) was gently injected through the cannula to ensure that the solution remained in the colon. A test compound and/or vehicle was administered orally 24 and 2 hours before DNBS instillation and then daily for 5 days. One control group was similarly treated with vehicle alone while the other is treated with vehicle plus DNBS. The animals were sacrificed 24 hours after the final dose of test compound administration and each colon was removed and weighed. Colon-to-body weight ratio was then calculated for each animal according to the formula: Colon (g)/BW×100. The “Net” increase in ratio of Vehicle-control+DNBS group relative to Vehicle-control group was used as a base for comparison with test substance treated groups and expressed as “% Deduction.” Pyrimidine compounds of this invention (e.g., Compound 12) reproducibly had about 30% deduction. A 30% or more reduction in colon-to-body weight ratio, relative to the vehicle treated control group, was considered significant.
These experiments were repeated three times and the effects were reproducible.

[3] = tested on: colitis in T cell-reconstituted C.B-17 SCID mice; assay: CD4+ CD45Rb high T cell-reconstituted SCID colitis model mice; format: in vivo, mouse
Experimental: Treatment of Crohn's disease in CD4^+ CD45Rb^high T cell-reconstituted SCID colitis model mice: Spleen cells were prepared from normal female BALB/c mice. For cell purification, the following anti-mouse antibodies were used to label non-CD4^+ T cells: B220 (RA3-6B2), CD11b (M1/70), and CD8α (53-6.72). All antibodies were obtained from BioSource (Camarillo, Calif.). M450 anti-rat IgG-coated magnetic beads (Dynal, Oslo, Norway) were used to bind the antibodies and negative selection was accomplished using an MPC-1 magnetic concentrator. The enriched CD4^+ cells were then labeled for cell sorting with FITC-conjugated CD45RB (16A, Pharmingen, San Diego, Calif.) and PE-conjugated CD4 (CT-CD4, Caltag, Burlingame, Calif.). CD4^+ CD45RB^high cells were operationally defined as the upper 40% of CD45Rb-staining CD4^+ cells and sorted under sterile conditions by flow cytometry. Harvested cells were resuspended at 4×10^6/mL in PBS and injected 100 μL intraperitoneally into female C.B-17 SCID mice. Pyrimidine compounds of this invention (e.g., Compound 12) and/or vehicle was orally administered once a day, 5 days per week, starting the day following the transfer. The transplanted SCID mice were weighed weekly and their clinical condition was monitored.
Colon tissue samples were fixed in 10% buffered formalin and embedded in paraffin. Sections (4 μm) collected from ascending, transverse, and descending colon were cut and stained with hematoxylin and eosin. The severity of colitis was determined based on histological examination of the distal colon sections, whereby the extent of colonic inflammation was graded on a scale of 0-3 in each of four criteria: crypt elongation, cell infiltration, depletion of goblet cells, and the number of crypt abscesses.
LP lymphocytes were isolated from freshly obtained colonic specimens. After removal of payer's patches, the colon was washed in Ca/Mg-free HBSS, cut into 0.5 cm pieces and incubated twice in HBSS containing EDTA (0.75 mM), DTT (1 mM), and antibiotics (amphotericin 2.5 μg/mL, gentamicin 50 μg/mL from Sigma) at 37° C. for 15 min. Next, the tissue was digested further in RPMI containing 0.5 mg/mL collagenase D, 0.01 mg/mL DNase I (Boehringer Manheim), and antibiotics at 37° C. […]
To measure cytokine production, 48-well plates were coated with 10 μg/mL murine anti-CD3ε antibody (145-2C11) in carbonate buffer (PH 9.6) overnight at 4° C. […] Murine IFNγ was measured using an ELISA kit from Endogen (Cambridge, Mass.), according to the manufacturer's instructions.
The calculated colon-to-body weight ratio was consistent with the histological score, showing attenuation by treatment with the test compound.

IL-23 = assay: Inhibition of IL-23 in stimulated human PBMC (p19 capture ELISA); format: cell-based
Excerpt: The level of inhibition of IL-23 inhibition by a compound of the invention can be measured by a similar assay in which human peripheral blood mononuclear cells (PBMC) or human monocytic cell line (THP-1) are stimulated with a combination of human interferon-γ (IFNγ) and lipopolysaccharide (LPS) or a combination of IFNγ and Staphylococcus aureus Cowan I (SAC) in the presence of a test compound. The level of inhibition of IL-23 production can be measured by determining the amount of p19 by using a sandwich ELISA assay with antibodies the recognize p19 subunit of IL-23. IC50 of the test compound can then be determined. One such assay is disclosed herein in Example 30.
Therefore, inhibition of IL-23 in addition to IL-12 is expected. In order to confirm the hypothesis, an assay was established to specifically detect IL-23 using polyclonal antibodies recognizing p19 (R&D Systems, MN), an IL-23 specific subunit. A 96-well plate was coated with the antibodies at 1 μg/ml, and after washing incubated with the supernatants of human peripheral blood mononuclear cells (PBMC). The culture was stimulated with 1 μg/ml of liposaccharide (LPS) (FIG. 2) or 0.025% of S. aureus Cowan I (SAC) (FIG. 1) in the presence of test compound after IFN-γ priming. The captured IL-23 was then detected by a biotinylated goat anti-human p40 antibody that binds to p40 subunit of human IL-12 and IL-23 as a monomer or in the context of the respective heterodimer (Part 840099 of product DY1240 from R&D Systems). The plate was developed by incubation with streptavidin-HRP and then substrate solution (R&D Systems Cat # DY999). Recombinant IL-23 (R&D Systems) was added as standard in the assay. The estimated detection range is from 0.1 to 10 ng/ml, and 1 ng/ml recombinant IL-12 heterodimer (Cell Sciences, MA) and p40 monomer (R&D Systems) were under detection limit. To compare with the inhibition of IL-23, the supernatant was also analyzed for IL-12 heterodimer and total p40 proteins using IL-12 specific ELISA kit (Cell Sciences) and p40 ELISA kit (R&D Systems) respectively.

Structure (SMILES): Cc1cccc(C=NNc2cc(N3CCOCC3)nc(OCCc3ccccn3)n2)c1 [Compound 12, N-(3-methyl-benzylidene)-N′-[6-morpholin-4-yl-2-(2-pyridin-2-yl-ethoxy)-pyrimidin-4-yl]-hydrazine]
- arthritic score [1]: reproducibly reduced the arthritic score
- development of polyarthritis [1]: delayed the development of polyarthritis in a dose-dependent manner
- % Deduction (net increase in colon-to-body weight ratio) [2]: about 30%
- IFNγ production by LP cells ([3]; LP cells ex vivo in response to anti-CD3 antibody and anti-CD28 antibody, 48 h): greatly diminished the production
- colon-to-body weight ratio ([3]; oral administration): attenuation
- colonic inflammation (histological analysis) ([3]; oral administration once a day, 5 days per week, compared to vehicle control): reduced colonic inflammation
- suppressive effect on colonic inflammation at 10 mg/kg ([3]; oral, dose of 10 mg/kg): substantial reduction
- inhibition of IL-23 (IL-23; IFN-γ/SAC and IFN-γ/LPS-stimulated human PBMC): inhibited by compound 12 in a dose-dependent manner
- inhibitory activity against IL-23 compared with that against IL-12 (IL-23; stimulated human PBMC): slightly lower than that against IL-12
- inhibitory activity against IL-23 compared with that against p40 (IL-23; stimulated human PBMC): comparable to that against p40
